Data published in patent EP4454710A1, “BISPECIFIC FUSION PROTEINS WITH IMMUNOSUPPRESSIVE ACTIVITY” (Universitat de Barcelona, priority 2023, dated 2024).

Assays:
Assay type in all cases: cell-based, human
Conditions in all cases: Tacrolimus 10 ng/mL (Table 3); 7 days MLR; mean +/- SD
[1] = system: CD3^+CD4^+PD-1^+ cells; test: In vitro T cell proliferation assay (allogenic PBMC co-culture, MLR), CD3+CD4+PD-1+ cells
Excerpt: (§1) Frozen PBMC were thawed in RPMI medium (Gibco, Thermofisher scientific, Waltham, Massachusetts, USA) with 20% fetal bovine serum (Cytiva, Little Chalfont, Buckinghamshire, United Kingdom). 200 000 PBMC from an individual, stained with CelltraceTM Violet Dye (Thermofisher scientific), were cocultured with 200 000 PBMC from another individual stained with CelltraceTM Farr Red Dye (Thermofisher Scientific) in RPMI medium supplemented with 10 % FBS and penicilline-streptomycine (Cultek, Madrid, Spain) for 7 days. […] Cells were analyzed using a LSRFortessaTM flow cytometer with DIVA (BD Biosciences) and FlowJo Softwares (Tree Star, Ashland, OR, USA). For each condition, we assessed the proportion of PBMC with low Violet or Farr Red dye staining among CD3^+ cells, C3^+CD4^+ cells and CD3^+CD4^+PD-1^+ cells and proceeded to normalization to the MLR without drug condition.

[2] = system: CD3^+CD4^+ cells; test: In vitro T cell proliferation assay (allogenic PBMC co-culture, MLR), CD3+CD4+ cells
Excerpt: as §1

[3] = system: CD3^+ cells; test: In vitro T cell proliferation assay (allogenic PBMC co-culture, MLR), CD3+ cells
Excerpt: as §1

C=CC[C@@H]1/C=C(\C)C[C@H](C)C[C@H](OC)[C@H]2O[C@@](O)(C(=O)C(=O)N3CCCC[C@H]3C(=O)O[C@H](/C(C)=C/[C@@H]3CC[C@@H](O)[C@H](OC)C3)[C@H](C)[C@@H](O)CC1=O)[C@H](C)C[C@@H]2OC [Tacrolimus]
Proliferation of CD3^+CD4^+PD-1^+ cells (% of proliferation compared with the condition without drug) [1]: 25.65 +/-20.39%
Proliferation of CD3^+CD4^+ cells (% of proliferation compared with the condition without drug) [2]: 23.34 +/- 20.03%
Proliferation of CD3^+ cells (% of proliferation compared with the condition without drug) [3]: 19.35 +/- 14.78%
